The NIST ThermoML archive (doi:10.1016/j.fluid.2019.06.022)
Values joined by “and” are separate entries in the source; they are usually repeats but may differ in a detail not shown here. Identical values can stand only once.

Assay: xn = mol fraction of the nth substance listed
Details: Liquid; for mass density: Bellows volumetry; for viscosity: Falling or rolling sphere viscometry

C=CC [propene] + Cc1ccccc1
Details	mass density, x1 = 0.0787 [kg/m3]	mass density, x1 = 0.3073 [kg/m3]	viscosity, x1 = 0.0787	viscosity, x1 = 0.3073
294.8 K, 16200 kPa	839.2	–	0.656 mPa·s and 0.638 mPa·s	–
294.8 K, 27900 kPa	847.6	–	0.7 mPa·s and 0.696 mPa·s	–
294.8 K, 28000 kPa	847.6	–	0.689 mPa·s	–
294.8 K, 28100 kPa	847.6	–	0.696 mPa·s	–
294.8 K, 28200 kPa	849.8	–	0.694 mPa·s and 0.693 mPa·s	–
294.8 K, 40900 kPa	855.9	–	0.77 mPa·s and 0.772 mPa·s	–
294.8 K, 56200 kPa	864.7	–	0.856 mPa·s	–
294.8 K, 56300 kPa	864.7	–	0.854 mPa·s	–
297.5 K, 3700 kPa	–	753	–	0.356 mPa·s and 0.355 mPa·s
297.5 K, 10800 kPa	–	759	–	0.371 mPa·s
297.5 K, 10900 kPa	–	759	–	0.363 mPa·s
297.5 K, 20700 kPa	–	766.9	–	0.399 mPa·s and 0.4 mPa·s
297.5 K, 21200 kPa	–	767.5	–	0.408 mPa·s and 0.412 mPa·s
297.5 K, 30500 kPa	–	774.9	–	0.439 mPa·s
297.5 K, 30600 kPa	–	774.9	–	0.44 mPa·s
297.5 K, 30700 kPa	–	774.9	–	0.431 mPa·s and 0.433 mPa·s
297.5 K, 48400 kPa	–	787.8	–	0.491 mPa·s
297.5 K, 48500 kPa	–	787.8	–	0.49 mPa·s
297.5 K, 69000 kPa	–	800.9	–	0.555 mPa·s
297.5 K, 69100 kPa	–	800.9	–	0.552 mPa·s
323.1 K, 3300 kPa	–	728.4	–	0.276 mPa·s
323.1 K, 3700 kPa	–	728.4	–	0.277 mPa·s
323.1 K, 10200 kPa	–	736.3	–	0.294 mPa·s
323.1 K, 11000 kPa	–	736.3	–	0.295 mPa·s
323.1 K, 21100 kPa	–	747.5	–	0.319 mPa·s
323.1 K, 21200 kPa	–	747.5	–	0.316 mPa·s
323.1 K, 35000 kPa	–	758.2	–	0.363 mPa·s
323.1 K, 35100 kPa	–	758.2	–	0.36 mPa·s and 0.352 mPa·s
323.1 K, 35200 kPa	–	758.2	–	0.35 mPa·s
323.1 K, 48500 kPa	–	768.2	–	0.389 mPa·s and 0.385 mPa·s
323.1 K, 68900 kPa	–	782.5	–	0.441 mPa·s and 0.442 mPa·s
325.2 K, 7100 kPa	808.6	–	0.423 mPa·s	–
325.2 K, 7400 kPa	808.6	–	0.421 mPa·s	–
325.2 K, 13900 kPa	814.5	–	0.435 mPa·s	–
325.2 K, 14200 kPa	814.2	–	0.44 mPa·s	–
325.2 K, 20600 kPa	819.6	–	0.468 mPa·s and 0.467 mPa·s	–
325.2 K, 26900 kPa	824.5	–	0.493 mPa·s	–
325.2 K, 27100 kPa	824.5	–	0.495 mPa·s	–
325.2 K, 40500 kPa	833.6	–	0.543 mPa·s and 0.534 mPa·s	–
325.2 K, 40700 kPa	833.6	–	0.542 mPa·s and 0.533 mPa·s	–
325.2 K, 51500 kPa	840.7	–	0.58 mPa·s	–
325.2 K, 51600 kPa	840.7	–	0.584 mPa·s and 0.589 mPa·s	–
325.2 K, 51900 kPa	840.7	–	0.583 mPa·s	–
325.2 K, 67700 kPa	850.9	–	0.644 mPa·s	–
325.2 K, 67900 kPa	850.9	–	0.645 mPa·s	–
325.2 K, 68000 kPa	850.9	–	0.645 mPa·s and 0.661 mPa·s	–
373.4 K, 3400 kPa	–	677.6	–	0.179 mPa·s
373.4 K, 3500 kPa	–	677.6	–	0.177 mPa·s
373.4 K, 6700 kPa	–	682.7	–	0.185 mPa·s
373.4 K, 6800 kPa	–	682.7	–	0.186 mPa·s
373.4 K, 17500 kPa	–	697.6	–	0.206 mPa·s and 0.207 mPa·s
373.4 K, 27500 kPa	–	710.3	–	0.225 mPa·s
373.4 K, 27700 kPa	–	710.2	–	0.224 mPa·s
373.4 K, 39100 kPa	–	722.7	–	0.244 mPa·s
373.4 K, 39200 kPa	–	722.7	–	0.243 mPa·s
373.4 K, 39300 kPa	–	722.7	–	0.246 mPa·s
373.4 K, 39600 kPa	–	722.7	–	0.247 mPa·s
373.4 K, 54700 kPa	–	737.2	–	0.27 mPa·s
373.4 K, 54800 kPa	–	737.2	–	0.271 mPa·s
373.4 K, 69000 kPa	–	748.6	–	0.297 mPa·s
373.4 K, 69100 kPa	–	748.6	–	0.296 mPa·s
376.9 K, 2400 kPa	759.5	–	0.252 mPa·s	–
